Assay results: patent publication US12492188B2, “1H-benzo[D]imidazole derivatives as TLR9 inhibitors for the treatment of fibrosis” (BRISTOL-MYERS SQUIBB COMPANY, priority 2020, dated 2025)
Like-named read-outs stand apart in the source and are kept apart here.

Columns and labels:
Assay type in all cases: cell-based
human TLR8 = biological target: T1, human TLR8 (Homo sapiens, UniProt Q9NR97); experiment: TLR8 inhibition reporter assay (HEK-Blue cells, secreted embryonic alkaline phosphatase reporter); settings: HEK-Blue cells overexpressing human TLR8, stimulated with R848 15.9 μM; read-out: TLR 8 IC50
T1 construct: host or cells: HEK-Blue cells (HEK293-derived reporter line)
T1 sequence (Q9NR97 27-1041): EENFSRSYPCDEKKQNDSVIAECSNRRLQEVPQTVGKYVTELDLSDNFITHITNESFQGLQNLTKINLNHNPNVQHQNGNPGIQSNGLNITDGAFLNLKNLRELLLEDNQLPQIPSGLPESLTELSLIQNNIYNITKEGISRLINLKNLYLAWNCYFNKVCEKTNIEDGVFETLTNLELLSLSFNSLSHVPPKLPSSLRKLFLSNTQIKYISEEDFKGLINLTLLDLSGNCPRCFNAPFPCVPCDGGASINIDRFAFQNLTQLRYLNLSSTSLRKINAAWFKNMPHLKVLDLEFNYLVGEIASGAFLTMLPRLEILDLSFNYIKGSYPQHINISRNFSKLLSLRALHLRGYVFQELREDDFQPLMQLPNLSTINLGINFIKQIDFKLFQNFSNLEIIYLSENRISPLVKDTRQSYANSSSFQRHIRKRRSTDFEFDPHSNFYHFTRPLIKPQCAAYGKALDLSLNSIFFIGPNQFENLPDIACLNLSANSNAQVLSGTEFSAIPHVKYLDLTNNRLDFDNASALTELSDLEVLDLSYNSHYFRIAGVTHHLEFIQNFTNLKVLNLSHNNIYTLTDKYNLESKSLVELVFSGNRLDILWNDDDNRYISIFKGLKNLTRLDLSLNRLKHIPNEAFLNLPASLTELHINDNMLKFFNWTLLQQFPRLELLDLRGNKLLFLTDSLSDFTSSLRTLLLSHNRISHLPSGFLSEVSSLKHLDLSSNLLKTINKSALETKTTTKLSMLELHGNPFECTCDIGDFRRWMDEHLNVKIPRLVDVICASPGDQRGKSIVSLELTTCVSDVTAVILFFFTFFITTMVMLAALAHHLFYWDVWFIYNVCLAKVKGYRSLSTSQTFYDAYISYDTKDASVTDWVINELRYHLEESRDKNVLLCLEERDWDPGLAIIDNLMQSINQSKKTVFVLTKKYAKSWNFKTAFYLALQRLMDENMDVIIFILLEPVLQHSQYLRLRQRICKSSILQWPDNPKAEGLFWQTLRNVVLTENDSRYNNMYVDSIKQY
Summary of the method: (§1)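 Agonist-driven SEAP output was measured in HEK-Blue reporter cells carrying human TLR7 (gardiquimod 7.5 μM), TLR8 (R848 15.9 μM) or TLR9 (ODN2006 5 nM). Compounds at 0.05 nM–50 μM final were added 30 min before stimulation at room temperature. After 22 h at 37 °C, percent inhibition was taken against agonist/DMSO wells and a reference inhibitor.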

human TLR9 = biological target: T2, human TLR9 (Homo sapiens, UniProt Q9NR96); experiment: TLR9 inhibition reporter assay (HEK-Blue cells, secreted embryonic alkaline phosphatase reporter)
T2 construct: host or cells: HEK-Blue cells (HEK293-derived reporter line)
T2 sequence (Q9NR96 26-1032): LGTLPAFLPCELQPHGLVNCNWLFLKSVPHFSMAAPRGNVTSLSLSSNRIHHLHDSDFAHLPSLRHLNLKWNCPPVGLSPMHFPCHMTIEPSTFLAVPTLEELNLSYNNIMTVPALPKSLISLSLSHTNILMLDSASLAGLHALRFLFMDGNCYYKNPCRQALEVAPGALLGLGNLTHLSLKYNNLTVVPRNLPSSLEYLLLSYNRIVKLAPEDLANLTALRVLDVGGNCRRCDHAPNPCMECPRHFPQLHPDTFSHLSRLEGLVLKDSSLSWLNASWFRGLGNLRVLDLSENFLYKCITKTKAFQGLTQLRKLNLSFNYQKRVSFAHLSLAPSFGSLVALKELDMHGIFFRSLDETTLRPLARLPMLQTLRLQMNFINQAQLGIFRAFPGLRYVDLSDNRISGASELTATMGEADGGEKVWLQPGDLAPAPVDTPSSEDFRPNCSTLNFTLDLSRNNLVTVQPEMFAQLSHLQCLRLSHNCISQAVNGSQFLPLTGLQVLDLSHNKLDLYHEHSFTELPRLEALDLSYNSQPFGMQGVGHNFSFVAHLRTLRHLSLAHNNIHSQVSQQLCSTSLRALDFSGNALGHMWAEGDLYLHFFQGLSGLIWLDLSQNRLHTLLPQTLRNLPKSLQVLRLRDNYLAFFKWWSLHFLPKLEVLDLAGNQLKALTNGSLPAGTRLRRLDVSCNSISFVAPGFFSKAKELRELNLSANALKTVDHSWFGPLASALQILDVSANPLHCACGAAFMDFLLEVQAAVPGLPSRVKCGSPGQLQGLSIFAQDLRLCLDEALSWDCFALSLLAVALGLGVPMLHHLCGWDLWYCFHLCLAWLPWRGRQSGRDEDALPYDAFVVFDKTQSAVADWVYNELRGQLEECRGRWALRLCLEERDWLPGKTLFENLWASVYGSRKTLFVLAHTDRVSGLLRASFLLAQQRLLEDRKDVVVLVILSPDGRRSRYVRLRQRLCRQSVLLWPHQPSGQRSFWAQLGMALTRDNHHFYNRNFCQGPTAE
Summary of the method: as §1

human TLR7 = biological target: T3, human TLR7 (Homo sapiens, UniProt Q9NYK1); experiment: TLR7 inhibition reporter assay (HEK-Blue cells, secreted embryonic alkaline phosphatase reporter); settings: HEK-Blue cells overexpressing human TLR7, stimulated with gardiquimod 7.5 μM; read-out: TLR 7 IC50
T3 construct: host or cells: HEK-Blue cells (HEK293-derived reporter line)
T3 sequence (Q9NYK1 27-1049): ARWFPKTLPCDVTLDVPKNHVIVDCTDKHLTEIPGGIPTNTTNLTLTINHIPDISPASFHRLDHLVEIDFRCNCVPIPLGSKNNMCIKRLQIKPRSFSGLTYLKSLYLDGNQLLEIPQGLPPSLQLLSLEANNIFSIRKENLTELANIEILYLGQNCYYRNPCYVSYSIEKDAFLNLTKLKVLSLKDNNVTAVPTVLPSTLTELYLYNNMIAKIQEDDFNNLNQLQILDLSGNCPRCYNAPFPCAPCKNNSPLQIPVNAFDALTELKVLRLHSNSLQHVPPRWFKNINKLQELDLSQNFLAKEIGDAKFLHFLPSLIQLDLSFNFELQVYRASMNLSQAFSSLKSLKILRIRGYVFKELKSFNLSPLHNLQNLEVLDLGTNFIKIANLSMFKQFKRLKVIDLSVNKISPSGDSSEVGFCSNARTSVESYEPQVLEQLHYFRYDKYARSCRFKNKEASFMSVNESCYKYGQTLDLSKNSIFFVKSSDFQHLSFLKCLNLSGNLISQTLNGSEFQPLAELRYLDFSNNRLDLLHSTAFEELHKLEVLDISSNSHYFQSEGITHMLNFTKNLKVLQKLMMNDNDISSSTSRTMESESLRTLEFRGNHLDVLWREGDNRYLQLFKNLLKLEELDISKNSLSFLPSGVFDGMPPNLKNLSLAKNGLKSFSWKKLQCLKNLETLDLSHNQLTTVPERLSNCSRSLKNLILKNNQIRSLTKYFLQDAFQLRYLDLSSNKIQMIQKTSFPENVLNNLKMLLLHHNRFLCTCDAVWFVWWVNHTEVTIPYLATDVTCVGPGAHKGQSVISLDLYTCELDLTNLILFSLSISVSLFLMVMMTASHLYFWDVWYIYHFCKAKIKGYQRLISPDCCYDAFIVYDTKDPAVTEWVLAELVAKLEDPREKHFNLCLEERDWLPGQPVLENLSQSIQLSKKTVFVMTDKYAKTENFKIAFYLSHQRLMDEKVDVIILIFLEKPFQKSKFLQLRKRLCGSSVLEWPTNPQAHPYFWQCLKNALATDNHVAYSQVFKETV
Summary of the method: as §1

[1] = HEK-Blue cells overexpressing human TLR9, stimulated with ODN2006 5 nM, read-out: TLR 9 IC50

CC(C)CN1C2CCC1CC(N1CCC(c3ccc4nc(-c5ccc(S(C)(=O)=O)cc5)[nH]c4c3F)CC1)C2 (single isomer, unassigned) [Example 220, 7-fluoro-6-(1-(8-isobutyl-8-azabicyclo[3.2.1]octan-3-yl)piperidin-4-yl)-2-(4-(methylsulfonyl)phenyl)-1H-benzo[d]imidazole] was tested, and the IC50 (human TLR8) was greater than 50000 nM, the IC50 (human TLR9) was 680 nM and the IC50 (human TLR9; [1]) was 683 nM. For the same compound, the IC50 (human TLR7) was 41900 nM.

With CC(C)CN1C2CCC1CC(N1CCC(c3cc4c(cc3F)nc(-c3ccc(S(C)(=O)=O)cc3)n4C)CC1)C2 (single isomer, unassigned) [Example 228, 5-fluoro-6-(1-(8-isobutyl-8-azabicyclo[3.2.1]octan-3-yl)piperidin-4-yl)-1-methyl-2-(4-(methylsulfonyl)phenyl)-1H-benzo[d]imidazole] the IC50 (human TLR8) was 16700 nM, the IC50 (human TLR9) was 69 nM and the IC50 (human TLR9; [1]) was 69 nM. The IC50 (human TLR7) was 1400 nM.

With CC(C)CN1C2CCC1CC(N1CCC(c3cc4c(cc3F)nc(-c3ccc(S(C)(=O)=O)cc3)n4C)CC1)C2 (single isomer, unassigned) [Example 229, 5-fluoro-6-(1-(8-isobutyl-8-azabicyclo[3.2.1]octan-3-yl)piperidin-4-yl)-1-methyl-2-(4-(methylsulfonyl)phenyl)-1H-benzo[d]imidazole] the IC50 (human TLR8) was greater than 50000 nM, the IC50 (human TLR9) was 95 nM and the IC50 (human TLR9; [1]) was 95 nM. For the same compound, the IC50 (human TLR7) was 43200 nM.

Work on Cn1c(-c2ccc(S(C)(=O)=O)cc2)nc2cc(F)c(C3CCN(C4CC5CCC(C4)N5C4COC4)CC3)cc21 (single isomer, unassigned) [Example 234, 5-fluoro-1-methyl-2-(4-(methylsulfonyl)phenyl)-6-(1-(8-(oxetan-3-yl)-8-azabicyclo[3.2.1]octan-3-yl)piperidin-4-yl)-1H-benzo[d]imidazole] yielded an IC50 (human TLR8) greater than 50000 nM, an IC50 (human TLR9) of 150 nM and an IC50 (human TLR9; [1]) of 152 nM. The IC50 (human TLR7) was greater than 50000 nM.

In the case of Cn1c(-c2ccc(S(C)(=O)=O)cc2)nc2cc(F)c(C3CCN(C4CC5CCC(C4)N5C4COC4)CC3)cc21 (single isomer, unassigned) [Example 235, 5-fluoro-1-methyl-2-(4-(methylsulfonyl)phenyl)-6-(1-(8-(oxetan-3-yl)-8-azabicyclo[3.2.1]octan-3-yl)piperidin-4-yl)-1H-benzo[d]imidazole], the IC50 (human TLR8) is reported as greater than 50000 nM, the IC50 (human TLR9) is reported as 1700 nM and the IC50 (human TLR9; [1]) is reported as 1730 nM. For the same compound, the IC50 (human TLR7) was greater than 50000 nM.

With COCCN1C2CCC1CC(N1CCC(c3cc4c(cc3F)nc(-c3ccc(S(C)(=O)=O)cc3)n4C)CC1)C2 (single isomer, unassigned) [Example 238, 5-fluoro-6-(1-(8-(2-methoxyethyl)-8-azabicyclo[3.2.1]octan-3-yl)piperidin-4-yl)-1-methyl-2-(4-(methylsulfonyl)phenyl)-1H-benzo[d]imidazole] the IC50 (human TLR8) was greater than 50000 nM, the IC50 (human TLR9) was 58 nM and the IC50 (human TLR9; [1]) was 58 nM. The IC50 (human TLR7) was 34600 nM.

Compound COCCN1C2CCC1CC(N1CCC(c3cc4c(cc3F)nc(-c3ccc(S(C)(=O)=O)cc3)n4C)CC1)C2 (single isomer, unassigned) [Example 239, 5-fluoro-6-(1-(8-(2-methoxyethyl)-8-azabicyclo[3.2.1]octan-3-yl)piperidin-4-yl)-1-methyl-2-(4-(methylsulfonyl)phenyl)-1H-benzo[d]imidazole] has an IC50 (human TLR8) greater than 50000 nM, an IC50 (human TLR9) of 290 nM and an IC50 (human TLR9; [1]) of 290 nM. The IC50 (human TLR7) was no less than 51200 nM.

For Cn1c(-c2ccc(S(C)(=O)=O)cc2)nc2cc(C3CCN(C4CC5CCC(C4)N5CC4CC4)CC3)c(F)cc21 (single isomer, unassigned) [Example 249, 5-(1-(8-(cyclopropylmethyl)-8-azabicyclo[3.2.1]octan-3-yl)piperidin-4-yl)-6-fluoro-1-methyl-2-(4-(methylsulfonyl)phenyl)-1H-benzo[d]imidazole], the IC50 (human TLR8) was greater than 50000 nM, the IC50 (human TLR9) was 32 nM and the IC50 (human TLR9; [1]) was 32 nM. The IC50 (human TLR7) was 21500 nM.

In the case of Cn1c(-c2ccc(S(C)(=O)=O)cc2)nc2cc(C3CCN(C4CC5CCC(C4)N5CC4CC4)CC3)c(F)cc21 (single isomer, unassigned) [Example 250, 5-(1-(8-(cyclopropylmethyl)-8-azabicyclo[3.2.1]octan-3-yl)piperidin-4-yl)-6-fluoro-1-methyl-2-(4-(methylsulfonyl)phenyl)-1H-benzo[d]imidazole], the IC50 (human TLR8) is reported as greater than 50000 nM, the IC50 (human TLR9) is reported as 110 nM and the IC50 (human TLR9; [1]) is reported as 110 nM. The IC50 (human TLR7) was 36700 nM.

Cn1c(-c2ccc(S(C)(=O)=O)cc2)nc2cc(C3CCN(C4CC5CCC(C4)N5C4COC4)CC3)c(F)cc21 (single isomer, unassigned) [Example 253, 6-fluoro-1-methyl-2-(4-(methylsulfonyl)phenyl)-5-(1-(8-(oxetan-3-yl)-8-azabicyclo[3.2.1]octan-3-yl)piperidin-4-yl)-1H-benzo[d]imidazole] was tested, and the IC50 (human TLR8) was greater than 50000 nM, the IC50 (human TLR9) was 280 nM and the IC50 (human TLR9; [1]) was 278 nM. The IC50 (human TLR7) was greater than 50000 nM.
